Assay results from paper PMC11214487, “YZL-51N functions as a selective inhibitor of SIRT7 by NAD^+ competition to impede DNA damage repair” (iScience, 2024).

Legend:
SIRT7 [1] = molecular target: T1, SIRT7 (Homo sapiens, UniProt Q9NRC8); experiment: Fluor de Lys (FDL) SIRT7 deacetylase assay; type: biochemical
T1 construct: His-tagged full length SIRT7 protein expression from BL21 bacterial cells; His; made in house; host or cells: E. coli BL21
T1 sequence (Q9NRC8 1-400): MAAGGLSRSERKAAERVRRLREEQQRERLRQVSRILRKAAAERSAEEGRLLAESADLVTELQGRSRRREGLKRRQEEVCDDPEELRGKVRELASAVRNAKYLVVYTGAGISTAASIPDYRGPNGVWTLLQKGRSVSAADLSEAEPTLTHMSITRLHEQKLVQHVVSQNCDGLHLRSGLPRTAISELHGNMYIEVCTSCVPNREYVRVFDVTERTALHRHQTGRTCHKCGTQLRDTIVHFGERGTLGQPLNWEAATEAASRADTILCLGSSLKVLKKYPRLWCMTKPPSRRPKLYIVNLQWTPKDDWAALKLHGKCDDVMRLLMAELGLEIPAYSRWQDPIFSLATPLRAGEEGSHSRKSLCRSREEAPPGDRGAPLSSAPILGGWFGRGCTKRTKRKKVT
Description: To assess SIRT7 deacetylase activity using Fluor de Lys (FDL) assays, the peptide […]∗QLAGGK was synthesized and characterized as a substrate using fluorophore 7-methoxycoumarin-4-acetic acid (∗, MCA) (Figures 1A, S1A, and S1B). In the presence of both SIRT7 and NAD^+, a luminescence response was detected in the linear range (y = 31.88x + 2396, R^2 = 0.9742) (Figure 1B). We screened our preserved library of 242 natural products to find potential SIRT7 inhibitors.
For in vitro analysis of SIRT7 deacetylation, the reaction system contained 10 μg His-SIRT7, 0.5 mM NAD^+, 10 μM […](MCA)QLAGGK (synthesized by QYAOBIO; details in the supplementary files), 50 μM potential compound or 3 mM NAM, and assay buffer (10 mM Tris-HCl pH 8.0, 4 mM MgCl2, 0.2 mM DTT and 10% Glycerol). The deacetylation reactions were incubated at 37°C for 90 min. The fluorescence intensity was measured with a microplate reader (Synergy H4 Hybrid Reader, Biotek) at an excitation wavelength of 260 nm and detected at an emission spectrum of 300–600 nm. The IC50 values were calculated at 450 nm emission by GraphPad Prism 8.

SIRT1 = molecular target: T2, SIRT1 (Homo sapiens, UniProt Q96EB6); experiment: Protein thermal shift assay; type: binding; conditions: 10 μM
T2 construct: GST-SIRT1-193-741; GST; purchased Active Motif 7846-50; host or cells: E. coli
T2 sequence (Q96EB6 193-741): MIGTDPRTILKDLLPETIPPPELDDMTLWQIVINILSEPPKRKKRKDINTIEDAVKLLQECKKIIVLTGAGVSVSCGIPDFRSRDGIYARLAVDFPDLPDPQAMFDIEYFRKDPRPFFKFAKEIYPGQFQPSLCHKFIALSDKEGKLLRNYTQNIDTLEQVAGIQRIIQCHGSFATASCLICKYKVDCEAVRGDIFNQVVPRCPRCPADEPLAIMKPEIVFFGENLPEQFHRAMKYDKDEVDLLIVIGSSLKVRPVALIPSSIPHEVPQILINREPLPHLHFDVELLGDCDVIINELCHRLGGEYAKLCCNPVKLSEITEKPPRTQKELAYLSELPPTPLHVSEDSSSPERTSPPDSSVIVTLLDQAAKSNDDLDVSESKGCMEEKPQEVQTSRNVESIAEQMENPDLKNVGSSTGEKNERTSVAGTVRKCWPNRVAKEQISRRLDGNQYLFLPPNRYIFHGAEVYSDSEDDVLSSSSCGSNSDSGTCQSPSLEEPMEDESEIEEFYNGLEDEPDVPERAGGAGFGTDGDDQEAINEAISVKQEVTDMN
Experimental: (§1) The mixture containing SIRT1, SIRT6 or SIRT7 proteins, SYPRO Orange, compounds and buffer (100 mM Tris-HCl, 40 mM NaCl, 10 mM MgCl2, pH=7.4) were added into 0.2 mL PCR tubes for a total volume of 20 μL and placed in an ABI ViiA 7 Real-time PCR System. The temperature ranging from 35.0 to 75.0°C was increased at a rate of 0.5°C/s and the fluorescence intensity was monitored in the ROX channel.

SIRT6 [2] = molecular target: T3, SIRT6 (Homo sapiens, UniProt Q8N6T7); experiment: Protein thermal shift assay; type: binding; conditions: 10 μM
T3 sequence (Q8N6T7 whole entry): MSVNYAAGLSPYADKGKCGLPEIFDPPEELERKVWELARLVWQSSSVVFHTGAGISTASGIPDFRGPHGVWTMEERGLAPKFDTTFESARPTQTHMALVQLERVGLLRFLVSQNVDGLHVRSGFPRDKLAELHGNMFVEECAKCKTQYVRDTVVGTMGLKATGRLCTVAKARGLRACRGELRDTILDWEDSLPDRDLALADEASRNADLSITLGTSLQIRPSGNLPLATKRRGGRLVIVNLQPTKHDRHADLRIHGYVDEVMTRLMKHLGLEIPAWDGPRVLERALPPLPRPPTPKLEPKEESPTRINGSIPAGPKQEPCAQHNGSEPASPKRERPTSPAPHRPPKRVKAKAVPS
Experimental: as §1

SIRT7 [3] = molecular target: T1, SIRT7; experiment: Protein thermal shift assay; type: binding; conditions: 10 μM
Experimental: as §1

SIRT7 [4] = molecular target: T1, SIRT7; experiment: Surface plasmon resonance (SPR) binding assay
Experimental: All SPR measurements were performed on Biacore T200 instrument (GE Healthcare) with running buffer (PBS+5% DMSO) at room temperature. The bacterially purified His-SIRT7 was covalently immobilized onto Series S Sensor Chip CM5 by a standard amino-coupling procedure in 10 mM sodium acetate (pH 5.5). Two-fold serial dilutions of YZL-51N or NAD^+ in 5% DMSO passed through the sensor chip at 30 μL/min for 120 s, followed by 240 s of dissociation flow. The KD value was calculated based on the concentration dependence of the observed steady-state response using Biacore T200 Evaluation software Version 1.0 (GE Healthcare).

HCT116 = experiment: CCK-8 cell proliferation assay; type: cell-based; conditions: Homo sapiens, HCT-116; HCT116, 48 h
Experimental: The plate was added with 10 μL CCK-8 solution to each well and incubated for 2 h at 37°C. The absorbance was measured at 450 nm using a microtiter plate reader (BioTek).

HCT116 cells = experiment: Western blot of histone acetylation in treated cells; type: cell-based, human; conditions: HCT116, 0-40 μM, 8 h
Experimental: After drug treatment, the cells were lysed in RIPA lysis buffer. […] The membranes were then blocked with 5% skimmed milk in TBST and incubated overnight at 4°C with the primary antibodies followed by incubation with HRP-conjugated secondary antibodies. The protein bands were then detected using the ECL substrates and visualized with Tanon 5200SF Imaging System.

SIRT6 [5] = molecular target: T3, SIRT6; experiment: Cellular thermal shift assay in HCT116 cell lysates; type: binding; parameters: endogenous in cells; host or cells: HCT116; conditions: 20 μM
Experimental: Cellular thermal shift assays were performed according to previously reported methods with some modifications.[66] Briefly, HCT116 cells were lysed with RIPA buffer and incubated with 20 μM YZL-51N or DMSO for 1 h on ice. Subsequently, cell lysates were divided into 70 μL aliquots and heated individually at different temperatures for 4 min following by cooling on ice. The heated lysates were centrifuged, and 50 μL supernatants were taken for SDS-PAGE and immunoblotting analysis with the indicated antibodies.

inhibition at 50 µM (SIRT7 [1]; 50 μM compound, 37°C, 90 min): 71.1%
IC50 (SIRT7 [1]; 0.5 mM NAD+, 10 μM peptide, read-out: FDL assay SIRT7 inhibition IC50): 12.7 µM
Shift in the melting curve (SIRT1): 0.45 °C
Shift in the melting curve (SIRT6 [2]): 1.0 °C
Shift in the melting curve (SIRT7 [3]): 2.86 °C
disassociation rate (koff) (SIRT7 [4]): 0.0006315 s⁻¹
Kd (SIRT7 [4]; immobilized His-SIRT7): 1.02 µM
kon (SIRT7 [4]; read-out: association rate (kon)): 618 M⁻¹ s⁻¹
IC50 (HCT116): 37.5 µM
Effect on the melting curve (SIRT6 [5]): no obvious effect
SMILES: COC(=O)/C(=C\C(=O)c1ccc(O)c(O)c1)c1ccc(O)c(O)c1 [YZL-51N]
Level of H3K18ac (HCT116 cells): increased
